# Source: ChEMBL document CHEMBL1201862, “PubChem BioAssay data set” (2004)
# Active and inactive are the calls of the source.
# Experiments:
# [1] = target: Heat shock cognate 71 kDa protein (Homo sapiens, UniProt P11142); assay: In Vitro Hsc70 Dose Response Fluorescence Polarization Assay. [Related pubchem assays: 1072 ]
# ORF 73 = ORF 73 (Human herpesvirus 8, UniProt O40947); assay: KSHV LANA DNA-binding disruption – biochemical, fluorescence polarization, cherry-picked samples, dose response (AID 504725); set-up: species or system Human gammaherpesvirus 8;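 further: fluorescence polarization of a labeled DNA duplex reporting LANA DNA binding; potency is for inhibitors that block LANA binding to the DNA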
# Sequence of ORF 73 (O40947 whole entry): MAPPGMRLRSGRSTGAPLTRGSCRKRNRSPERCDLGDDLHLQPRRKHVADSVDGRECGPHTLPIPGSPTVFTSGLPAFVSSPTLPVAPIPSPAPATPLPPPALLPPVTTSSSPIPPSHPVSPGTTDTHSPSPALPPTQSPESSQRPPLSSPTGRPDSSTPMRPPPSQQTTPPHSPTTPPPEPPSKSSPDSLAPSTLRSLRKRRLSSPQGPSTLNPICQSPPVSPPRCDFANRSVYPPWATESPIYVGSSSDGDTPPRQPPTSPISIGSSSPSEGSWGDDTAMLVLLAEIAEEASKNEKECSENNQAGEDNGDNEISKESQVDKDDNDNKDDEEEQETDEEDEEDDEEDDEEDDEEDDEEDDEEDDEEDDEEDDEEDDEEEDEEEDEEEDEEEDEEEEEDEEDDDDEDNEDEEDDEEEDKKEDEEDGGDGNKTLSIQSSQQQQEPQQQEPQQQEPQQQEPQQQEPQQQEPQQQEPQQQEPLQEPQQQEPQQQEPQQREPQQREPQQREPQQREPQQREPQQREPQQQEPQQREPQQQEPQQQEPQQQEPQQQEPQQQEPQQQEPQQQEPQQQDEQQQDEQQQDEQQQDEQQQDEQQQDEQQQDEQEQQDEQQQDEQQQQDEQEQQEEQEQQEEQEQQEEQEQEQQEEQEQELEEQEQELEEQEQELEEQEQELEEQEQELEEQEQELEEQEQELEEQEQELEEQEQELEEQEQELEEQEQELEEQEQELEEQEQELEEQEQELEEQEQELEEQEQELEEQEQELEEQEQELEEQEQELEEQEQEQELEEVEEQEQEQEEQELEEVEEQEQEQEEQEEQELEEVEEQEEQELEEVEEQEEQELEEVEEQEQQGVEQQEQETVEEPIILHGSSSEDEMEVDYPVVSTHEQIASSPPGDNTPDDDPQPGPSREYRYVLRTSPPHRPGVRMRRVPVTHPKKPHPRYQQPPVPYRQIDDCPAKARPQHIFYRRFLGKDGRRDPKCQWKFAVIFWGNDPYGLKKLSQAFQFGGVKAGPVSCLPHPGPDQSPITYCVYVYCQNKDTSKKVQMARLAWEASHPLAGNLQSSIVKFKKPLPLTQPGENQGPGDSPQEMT
# HeLa = assay: viability loss in HeLa cells – cell-based, 24 h, cherry-picked samples, cytotoxicity control, dose response (AID 504726); format: functional; settings: Homo sapiens;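 further: potency for cytotoxicity as loss of luminescence signal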
# [2] = target: T1, Dual specificity protein phosphatase 6 (Rattus norvegicus, UniProt Q64346)
# T1 sequence (Q64346 whole entry): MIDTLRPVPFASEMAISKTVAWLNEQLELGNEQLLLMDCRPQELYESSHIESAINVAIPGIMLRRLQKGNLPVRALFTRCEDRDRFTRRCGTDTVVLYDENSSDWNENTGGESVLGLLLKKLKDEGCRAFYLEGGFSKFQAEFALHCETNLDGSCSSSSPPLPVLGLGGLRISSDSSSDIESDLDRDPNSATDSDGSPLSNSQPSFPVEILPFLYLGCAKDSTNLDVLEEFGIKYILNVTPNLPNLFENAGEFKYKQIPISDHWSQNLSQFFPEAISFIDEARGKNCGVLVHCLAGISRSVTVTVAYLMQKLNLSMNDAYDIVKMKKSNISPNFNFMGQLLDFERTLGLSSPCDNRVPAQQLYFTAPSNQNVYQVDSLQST
# Large T antigen = Large T antigen (Simian virus 40, UniProt P03070); format: functional, Betapolyomavirus macacae;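 further: Confirmatory-stage PubChem screen for compounds that inhibit SV40 T antigen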
# Sequence of Large T antigen (P03070 whole entry): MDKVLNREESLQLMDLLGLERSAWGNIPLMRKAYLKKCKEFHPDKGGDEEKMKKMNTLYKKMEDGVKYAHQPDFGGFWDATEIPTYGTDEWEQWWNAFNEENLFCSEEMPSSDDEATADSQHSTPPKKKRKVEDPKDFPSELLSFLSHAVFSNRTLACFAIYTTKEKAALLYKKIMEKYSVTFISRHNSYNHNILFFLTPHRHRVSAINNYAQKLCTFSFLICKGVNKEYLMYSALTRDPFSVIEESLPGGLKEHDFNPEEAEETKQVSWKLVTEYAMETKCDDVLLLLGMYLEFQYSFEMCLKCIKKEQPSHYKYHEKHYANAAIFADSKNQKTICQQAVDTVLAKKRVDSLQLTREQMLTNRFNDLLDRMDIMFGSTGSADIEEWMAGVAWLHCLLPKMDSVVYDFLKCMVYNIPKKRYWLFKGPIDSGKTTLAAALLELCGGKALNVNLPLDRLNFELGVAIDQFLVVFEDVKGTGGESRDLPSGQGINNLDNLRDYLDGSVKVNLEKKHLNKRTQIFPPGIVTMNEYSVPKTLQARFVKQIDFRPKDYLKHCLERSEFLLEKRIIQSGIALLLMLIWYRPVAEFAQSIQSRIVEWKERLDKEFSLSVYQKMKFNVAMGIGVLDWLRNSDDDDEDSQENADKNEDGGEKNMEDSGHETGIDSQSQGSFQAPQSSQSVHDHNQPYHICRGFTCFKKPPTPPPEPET
# [3] = target: 26S proteasome non-ATPase regulatory subunit 14 (Homo sapiens, UniProt O00487); assay: inhibition of proteasome subunit RPN11 – biochemical, fluorescence polarization, uHTS hits, confirmation (AID 602368); format: functional
# Sequence of 26S proteasome non-ATPase regulatory subunit 14 (O00487 whole entry): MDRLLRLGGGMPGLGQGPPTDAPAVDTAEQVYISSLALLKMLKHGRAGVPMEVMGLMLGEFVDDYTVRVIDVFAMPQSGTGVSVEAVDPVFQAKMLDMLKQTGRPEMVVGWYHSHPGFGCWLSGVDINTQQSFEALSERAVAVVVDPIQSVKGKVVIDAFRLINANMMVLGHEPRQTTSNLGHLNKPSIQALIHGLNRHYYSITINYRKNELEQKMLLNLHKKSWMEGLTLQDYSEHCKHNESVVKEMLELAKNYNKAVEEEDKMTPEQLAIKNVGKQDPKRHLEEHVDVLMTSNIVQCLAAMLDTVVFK
# [4] = target: Heat shock 70 kDa protein 1A (Homo sapiens, UniProt P0DMV8); assay: inhibition of Hsp70 binding activity – biochemical, fluorescence polarization, SAR follow-up (AID 1072)
# [5] = target: T2, Tyrosine-protein phosphatase non-receptor type 7 (Homo sapiens, UniProt P35236); format: functional
# T2 sequence (P35236 whole entry): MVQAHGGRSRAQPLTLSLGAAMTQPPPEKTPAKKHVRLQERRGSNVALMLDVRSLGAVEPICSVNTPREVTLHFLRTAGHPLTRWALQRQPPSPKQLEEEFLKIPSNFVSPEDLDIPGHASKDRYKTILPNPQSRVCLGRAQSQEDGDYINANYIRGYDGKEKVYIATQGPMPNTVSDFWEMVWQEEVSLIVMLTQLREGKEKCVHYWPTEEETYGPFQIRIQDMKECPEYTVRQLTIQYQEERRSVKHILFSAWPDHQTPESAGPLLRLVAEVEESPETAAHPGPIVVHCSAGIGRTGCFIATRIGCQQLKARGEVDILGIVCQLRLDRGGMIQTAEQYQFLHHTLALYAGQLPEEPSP
# [6] = target: Eukaryotic translation initiation factor 4E (Mus musculus, UniProt P63073); assay: blockers of eIF4G binding by eIF4E – biochemical, TR-FRET, dose response (AID 855); format: functional;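 further: potency for disrupting eIF4E binding to eIF4GI seen as loss of FRET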
# [7] = target: T1, Dual specificity protein phosphatase 6; format: functional
# [8] = target: T1, Dual specificity protein phosphatase 6; assay: inhibition of rat DUSP6 enzyme activity – biochemical, in vitro, primary screen (AID 425)
# [9] = target: DNA (cytosine-5)-methyltransferase 1 (Homo sapiens, UniProt P26358); assay: inhibition of DNA methylation by DNMT1 – biochemical, fluorescent molecular beacon, confirmation (AID 602386); format: functional
# Sequence of DNA (cytosine-5)-methyltransferase 1 (P26358 whole entry): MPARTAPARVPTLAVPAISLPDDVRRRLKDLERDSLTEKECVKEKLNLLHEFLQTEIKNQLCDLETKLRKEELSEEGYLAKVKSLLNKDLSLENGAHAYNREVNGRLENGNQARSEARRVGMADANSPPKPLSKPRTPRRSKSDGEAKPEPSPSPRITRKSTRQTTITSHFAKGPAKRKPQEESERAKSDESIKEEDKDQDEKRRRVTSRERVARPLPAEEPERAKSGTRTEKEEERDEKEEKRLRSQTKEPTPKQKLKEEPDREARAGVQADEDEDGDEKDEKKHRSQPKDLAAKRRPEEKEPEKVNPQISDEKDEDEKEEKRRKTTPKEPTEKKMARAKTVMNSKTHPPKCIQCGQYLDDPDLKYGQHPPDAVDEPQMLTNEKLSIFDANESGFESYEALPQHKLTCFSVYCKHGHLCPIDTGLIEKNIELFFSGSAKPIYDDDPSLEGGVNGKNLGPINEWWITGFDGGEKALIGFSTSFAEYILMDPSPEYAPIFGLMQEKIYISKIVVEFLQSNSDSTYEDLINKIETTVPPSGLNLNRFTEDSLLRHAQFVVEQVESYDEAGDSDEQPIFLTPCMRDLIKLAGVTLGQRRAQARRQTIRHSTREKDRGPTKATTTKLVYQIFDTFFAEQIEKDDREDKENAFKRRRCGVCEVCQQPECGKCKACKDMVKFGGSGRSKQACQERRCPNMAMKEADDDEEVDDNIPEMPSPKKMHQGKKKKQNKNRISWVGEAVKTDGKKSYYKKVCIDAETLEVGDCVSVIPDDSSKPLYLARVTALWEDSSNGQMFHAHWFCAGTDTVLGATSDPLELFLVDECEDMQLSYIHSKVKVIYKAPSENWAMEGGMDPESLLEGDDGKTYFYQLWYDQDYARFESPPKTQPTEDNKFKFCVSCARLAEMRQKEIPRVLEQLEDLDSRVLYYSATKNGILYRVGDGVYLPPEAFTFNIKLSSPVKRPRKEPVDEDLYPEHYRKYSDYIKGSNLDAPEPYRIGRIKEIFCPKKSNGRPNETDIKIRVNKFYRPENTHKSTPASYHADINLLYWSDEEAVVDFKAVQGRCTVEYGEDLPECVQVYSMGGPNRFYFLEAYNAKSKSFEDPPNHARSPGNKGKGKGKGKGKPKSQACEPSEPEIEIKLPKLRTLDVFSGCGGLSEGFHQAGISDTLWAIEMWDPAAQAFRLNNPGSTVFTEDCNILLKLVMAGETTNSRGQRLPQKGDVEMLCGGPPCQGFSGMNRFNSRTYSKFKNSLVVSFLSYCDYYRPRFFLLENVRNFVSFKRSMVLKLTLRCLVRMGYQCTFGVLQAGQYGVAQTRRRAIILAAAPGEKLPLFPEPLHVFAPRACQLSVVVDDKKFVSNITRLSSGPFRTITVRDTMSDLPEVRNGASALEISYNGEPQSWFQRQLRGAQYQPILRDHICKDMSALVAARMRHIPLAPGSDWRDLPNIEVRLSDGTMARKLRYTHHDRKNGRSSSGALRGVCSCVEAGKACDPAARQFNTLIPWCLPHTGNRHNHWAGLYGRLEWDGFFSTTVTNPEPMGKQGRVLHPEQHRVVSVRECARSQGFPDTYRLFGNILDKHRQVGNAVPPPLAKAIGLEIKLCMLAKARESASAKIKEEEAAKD
# [10] = target: T3, Lysine-specific demethylase 4C (Homo sapiens, UniProt Q9H3R0); assay: inhibition of JMJD2C H3K9me3 demethylation – biochemical, DELFIA europium, cherry-picked samples, dose response (AID 488835); format: functional
# T3 sequence (Q9H3R0 whole entry): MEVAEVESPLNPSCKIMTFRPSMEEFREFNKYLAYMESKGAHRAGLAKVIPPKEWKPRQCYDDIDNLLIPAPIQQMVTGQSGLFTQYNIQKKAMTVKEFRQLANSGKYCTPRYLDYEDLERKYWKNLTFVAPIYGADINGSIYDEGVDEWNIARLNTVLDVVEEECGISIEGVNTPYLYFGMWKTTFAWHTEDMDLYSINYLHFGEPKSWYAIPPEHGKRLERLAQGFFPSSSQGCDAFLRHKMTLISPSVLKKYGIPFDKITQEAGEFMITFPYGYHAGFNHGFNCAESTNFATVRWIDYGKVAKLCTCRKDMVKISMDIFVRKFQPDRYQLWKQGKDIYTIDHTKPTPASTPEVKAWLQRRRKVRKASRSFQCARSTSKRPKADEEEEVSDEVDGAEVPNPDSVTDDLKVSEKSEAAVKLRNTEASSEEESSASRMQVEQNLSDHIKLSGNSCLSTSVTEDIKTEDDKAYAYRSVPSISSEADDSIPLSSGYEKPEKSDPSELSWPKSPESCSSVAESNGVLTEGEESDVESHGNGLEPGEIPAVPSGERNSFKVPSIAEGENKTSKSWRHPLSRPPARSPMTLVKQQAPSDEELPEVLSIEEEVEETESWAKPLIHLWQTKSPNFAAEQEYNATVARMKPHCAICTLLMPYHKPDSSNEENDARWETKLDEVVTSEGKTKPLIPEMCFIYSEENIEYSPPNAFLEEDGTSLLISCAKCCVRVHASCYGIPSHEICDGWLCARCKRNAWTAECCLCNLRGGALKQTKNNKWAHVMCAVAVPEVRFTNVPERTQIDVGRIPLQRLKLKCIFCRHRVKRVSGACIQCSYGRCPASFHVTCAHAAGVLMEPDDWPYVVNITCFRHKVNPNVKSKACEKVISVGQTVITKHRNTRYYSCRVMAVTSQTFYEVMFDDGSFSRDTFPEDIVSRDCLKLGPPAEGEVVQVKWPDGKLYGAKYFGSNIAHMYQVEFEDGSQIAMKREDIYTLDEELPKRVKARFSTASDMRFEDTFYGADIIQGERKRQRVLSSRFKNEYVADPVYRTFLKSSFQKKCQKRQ
# [11] = target: 72 kDa type IV collagenase (Homo sapiens, UniProt P08253); assay: Dose Response validation of uHTS RPN11 inhibitor hits using a MMP-2 Fluorescence assay.; format: functional
# Prothrombin = Prothrombin (Bos taurus, UniProt P00735); assay: thrombin protease inhibitors – biochemical, fluorescence polarization, uHTS hits, dose response (AID 602369); format: functional
# [12] = target: Glyceraldehyde-3-phosphate dehydrogenase (Homo sapiens, UniProt P04406)
# Sequence of Glyceraldehyde-3-phosphate dehydrogenase (P04406 whole entry): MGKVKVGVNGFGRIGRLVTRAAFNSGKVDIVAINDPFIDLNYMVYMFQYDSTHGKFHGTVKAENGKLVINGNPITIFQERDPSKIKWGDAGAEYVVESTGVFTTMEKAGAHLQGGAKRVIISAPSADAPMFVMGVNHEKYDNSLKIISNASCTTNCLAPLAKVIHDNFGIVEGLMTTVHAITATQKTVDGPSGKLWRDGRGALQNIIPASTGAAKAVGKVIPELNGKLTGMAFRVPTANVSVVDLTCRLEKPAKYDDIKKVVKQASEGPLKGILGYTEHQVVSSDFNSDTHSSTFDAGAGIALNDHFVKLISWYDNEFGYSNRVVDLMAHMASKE
# [13] = Trypanosoma cruzi growth suppression in host cells – NIH3T3 host cells, beta-gal luminescence, confirmation (AID 2044); format: functional, cell-based;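 further: intracellular parasites grown in NIH/3T3 mouse fibroblasts as host cells; luminescent beta-galactosidase reporter signal from transgenic T. cruzi replicating inside host cells; inhibitors lower the luminescence signal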
# cells = format: functional
# [14] = target: T4, Microphthalmia-associated transcription factor (Homo sapiens, UniProt O75030); assay: reducers of TRPM1 reporter luminescence, concentration series – cell-based, SK-MEL-5, cherry-picked, set 3, MITF inhibitor project, dose response (AID 493073); format: functional;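 further: SK-MEL-5 melanoma cells with luciferase driven by the MITF target TRPM1 promoter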
# T4 sequence (O75030 whole entry): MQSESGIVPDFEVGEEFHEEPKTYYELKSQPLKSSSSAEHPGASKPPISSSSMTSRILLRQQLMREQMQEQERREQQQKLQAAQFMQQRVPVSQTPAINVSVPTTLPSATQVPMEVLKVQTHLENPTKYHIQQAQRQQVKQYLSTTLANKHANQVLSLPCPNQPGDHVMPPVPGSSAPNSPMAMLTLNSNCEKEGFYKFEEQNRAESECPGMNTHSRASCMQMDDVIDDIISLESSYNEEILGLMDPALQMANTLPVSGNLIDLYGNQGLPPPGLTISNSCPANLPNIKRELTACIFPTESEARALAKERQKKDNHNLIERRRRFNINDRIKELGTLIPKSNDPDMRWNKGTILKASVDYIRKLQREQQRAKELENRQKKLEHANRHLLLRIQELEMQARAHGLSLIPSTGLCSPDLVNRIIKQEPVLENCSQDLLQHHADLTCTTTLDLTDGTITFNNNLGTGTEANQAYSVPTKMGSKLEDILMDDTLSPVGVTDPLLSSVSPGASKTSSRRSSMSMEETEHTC
# [15] = target: Mitochondrial peptide methionine sulfoxide reductase (Bos taurus, UniProt P54149); assay: Absorbance-based biochemical high throughput dose response assay for activators of Methionine sulfoxide reductase A (MsrA).; format: functional
# Sequence of Mitochondrial peptide methionine sulfoxide reductase (P54149 whole entry): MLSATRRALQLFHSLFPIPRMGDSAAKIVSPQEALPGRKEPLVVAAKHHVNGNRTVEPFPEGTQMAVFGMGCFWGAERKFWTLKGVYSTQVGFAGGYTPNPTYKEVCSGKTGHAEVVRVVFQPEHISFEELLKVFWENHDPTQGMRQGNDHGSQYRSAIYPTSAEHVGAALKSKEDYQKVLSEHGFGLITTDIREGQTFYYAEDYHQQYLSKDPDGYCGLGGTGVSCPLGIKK
# [16] = Vero E6 cell cytotoxicity, dose response, cytotoxicity control for non-replicating M. tuberculosis project, secondary assay (AID 492998); format: functional, VeroE6; settings: Vero C1008
# [17] = THP-1 cell cytotoxicity, dose response, cytotoxicity control for non-replicating M. tuberculosis project (AID 489025); format: functional
# [18] = NIH3T3 cell viability loss – ATP luminescence, mouse fibroblasts, counter-screen, dose response (AID 2010); format: functional, cell-based;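 further: cells exposed to compound for about 90 hours before reading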
# [19] = inhibition of ARNT PAS-B/TACC3 complex formation – biochemical, AlphaScreen, cherry-picked samples, confirmation (AID 651703); format: functional, Homo sapiens;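 further: His-tagged ARNT PAS-B domain paired with GST-TACC3 E629A dimer coactivator fragment; potency of inhibitors that break up the complex and lower AlphaScreen signal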
# Sequence of Heat shock cognate 71 kDa protein (P11142 whole entry): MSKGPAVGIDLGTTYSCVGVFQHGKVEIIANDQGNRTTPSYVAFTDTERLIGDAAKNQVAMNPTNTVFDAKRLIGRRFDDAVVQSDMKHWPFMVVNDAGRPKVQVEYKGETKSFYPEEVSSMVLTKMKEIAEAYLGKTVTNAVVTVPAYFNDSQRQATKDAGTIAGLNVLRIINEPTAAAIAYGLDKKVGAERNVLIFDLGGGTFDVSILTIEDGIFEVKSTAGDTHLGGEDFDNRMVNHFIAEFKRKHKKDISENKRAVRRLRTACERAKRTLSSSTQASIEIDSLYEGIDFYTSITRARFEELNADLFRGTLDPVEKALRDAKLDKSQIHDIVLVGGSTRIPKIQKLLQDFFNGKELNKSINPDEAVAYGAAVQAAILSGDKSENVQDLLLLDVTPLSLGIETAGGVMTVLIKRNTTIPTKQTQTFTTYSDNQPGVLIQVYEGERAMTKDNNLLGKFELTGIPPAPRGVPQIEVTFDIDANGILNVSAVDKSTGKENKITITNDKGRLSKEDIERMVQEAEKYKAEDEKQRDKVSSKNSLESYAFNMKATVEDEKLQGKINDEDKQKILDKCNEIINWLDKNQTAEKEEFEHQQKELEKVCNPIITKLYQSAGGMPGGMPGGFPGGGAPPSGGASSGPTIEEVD
smiles,measurement,setting,value
O=C1CC(=O)N(Cc2ccco2)C(=O)N1,IC50,[1],> 100 µM (not active)
same,AC50,ORF 73,132 µM (active)
same,AC50,HeLa,> 350 µM (inactive)
same,IC50,[2],> 100 µM (inactive)
same,IC50,Large T antigen,76.3 µM (active)
same,IC50,[3],9.99 µM (active)
same,IC50,[4],> 100 µM (not active)
same,IC50,[5],5.11 µM (active)
same,IC50,[6],> 64 µM (inactive)
same,IC50,[7],> 100 µM (inactive)
same,IC50,[8],> 10 µM (not active)
same,IC50,[9],1.58 µM (active)
same,AC50,[10],11.2 µM (active)
same,IC50,[11],1.04 µM (active)
same,IC50,Prothrombin,59.1 µM (active)
same,IC50,[12],> 100 µM (not active)
O=C(N/N=C/c1ccc([N+](=O)[O-])s1)c1cccc(Br)c1,EC50,[13],0.754 µM (active)
same,IC50,cells,4.37 µM (active)
same,AC50,[14],4.83 µM (active)
same,EC50,[15],> 104 µM (inactive)
same,CC50,[16],6.21 µM (active)
same,CC50,[17],7.59 µM (active)
same,EC50,[18],5.39 µM (active)
CCOc1ccc2c(c1)C(N(CCN1CCOCC1)C(=O)Nc1ccccc1)CC(C)(C)O2 (centres undefined),AC50,[19],84 µM (active)
